Among the test systems are ACHN renal; HCC-2998 colon; KM12 colon; LOX IMVI melanoma; MALME-3M melanoma; MCF7 breast; NCI-H23 lung; RPMI-8226 leukemia; SK-MEL-5 melanoma; SN12C renal.
What all share (experiment): NCI-60 cell line screen, 48 h

Where “and” joins values, the source holds several entries; their conditions need not be identical. Equal entries are not always repeated.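 All cell lines were grown in 96-well plates and treated with compound for 48 hours. Here, GI50 denotes the concentration required for 50% inhibition of growth. At the TGI there is no net growth.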 A value given as a limit tells only on which side of the number the result lay.

Take `CCN(CCO)CCNc1ccc(C)c2sc3ccccc3c(=O)c12`: the TGI in the assay with ACHN renal stood at 15 µM; with HCC-2998 colon it was 5.2 µM; with KM12 colon it was 11.2 µM; in the assay on LOX IMVI melanoma, 5.18 µM; with MALME-3M melanoma, 8.05 µM; with MCF7 breast it was 3.24 µM. Further, the TGI is 21.3 µM in the assay with NCI-H23 lung, 20.3 µM in the assay with RPMI-8226 leukemia, 7.66 µM with SK-MEL-5 melanoma and 23.9 µM in the assay with SN12C renal.

Consider `O=CN1CCC23CC(O)CCC2C1Cc1cc(Oc2nnnn2-c2ccccc2)cc(O)c13` (centres undefined), for which the TGI with ACHN renal, in the assay with HCC-2998 colon, with KM12 colon, with LOX IMVI melanoma, in the assay on MALME-3M melanoma and with MCF7 breast was over 100 µM throughout. The TGI in the assay on NCI-H23 lung, with RPMI-8226 leukemia, in the assay with SK-MEL-5 melanoma and in the assay on SN12C renal was over 100 µM each time.

For `COc1ccc2c(c1)CCCc1c-2nc2ccccc2c1N`, the TGI in the assay on ACHN renal is 29 µM; in the assay on HCC-2998 colon, 3.34 µM; in the assay on KM12 colon it was 30.9 µM; in the assay with LOX IMVI melanoma, 20.9 µM; with MALME-3M melanoma, 27.1 µM; in the assay on MCF7 breast, 24.9 µM. Also, the TGI was found to be 31.6 µM in the assay with NCI-H23 lung, 27.3 µM in the assay on RPMI-8226 leukemia, 15.1 µM in the assay with SK-MEL-5 melanoma and 17.9 µM in the assay on SN12C renal.

For `CCOC(=O)C12CC(C)=C(C)CC1CCCc1ccccc12` (centres undefined), the TGI in the assay with ACHN renal is 36 µM; in the assay on HCC-2998 colon it was 28.1 µM; in the assay with KM12 colon, over 100 µM; with LOX IMVI melanoma, 30.8 µM; in the assay with MALME-3M melanoma, 53.5 µM; in the assay with MCF7 breast, 35.2 µM. The TGI in the assay on NCI-H23 lung was over 100 µM; with RPMI-8226 leukemia, 34.2 µM; in the assay on SK-MEL-5 melanoma, 37.5 µM; in the assay on SN12C renal, 58.3 µM.

Regarding `CCCC[C@H]1C(=O)O[C@H](C)[C@H](NC(=O)c2cccc(NC=O)c2OC)C(=O)O[C@@H](C)[C@@H]1OC(=O)CC(C)C` (tested in a mixture with another compound), the TGI amounted to 41.4 µM in the assay with ACHN renal; 80.6 µM in the assay on HCC-2998 colon; 46.9 µM in the assay on KM12 colon; 23.2 µM in the assay with LOX IMVI melanoma; 46.5 µM with MALME-3M melanoma; 28.1 µM in the assay on MCF7 breast. The TGI in the assay on NCI-H23 lung amounted to 26.5 µM; in the assay on RPMI-8226 leukemia, 28.2 µM; with SK-MEL-5 melanoma, 27.7 µM; in the assay on SN12C renal, 44.2 µM.

Consider `C[C@H]1CCC/C=C/[C@@H]2C[C@H](O)C[C@H]2[C@H](O)/C=C/C(=O)O1`, for which the GI50 was 0.0354 µM and 0.0938 µM and 0.0626 µM in the assay on ACHN renal; 0.0623 µM and 0.054 µM in the assay on HCC-2998 colon; 0.0197 µM with KM12 colon; 0.0417 µM with MCF7 breast; 0.0531 µM in the assay on NCI-H23 lung; 0.0345 µM and 0.0737 µM and 0.11 µM in the assay with RPMI-8226 leukemia. The GI50 in the assay on SK-MEL-5 melanoma was under 0.0122 µM; in the assay with SN12C renal, 0.0294 µM and 0.0846 µM and 0.0485 µM. Moreover, the TGI with ACHN renal is 1.39 µM and 2.36 µM; in the assay with HCC-2998 colon, 0.674 µM and 0.322 µM; with LOX IMVI melanoma it was 0.0412 µM and 0.0275 µM; in the assay on MALME-3M melanoma, 0.0745 µM and 0.0253 µM and 0.0382 µM; in the assay on SK-MEL-5 melanoma, < 0.01 µM and 0.0127 µM and 0.0164 µM; in the assay with SN12C renal, 3.95 µM and 0.491 µM.

`COC(=O)c1ccc2c(c1)sc1nc(-c3ccc(OC)cc3)cn12`: the TGI in the assay on ACHN renal, with HCC-2998 colon, in the assay on KM12 colon, with LOX IMVI melanoma, with MALME-3M melanoma and with MCF7 breast was over 100 µM in each case. For the same compound, the TGI in the assay on NCI-H23 lung is over 100 µM; in the assay on RPMI-8226 leukemia, over 100 µM; in the assay on SK-MEL-5 melanoma it was 53.6 µM; in the assay with SN12C renal, over 100 µM.

For `O=S(=O)(O)c1ccc2c(N=Nc3ccccc3)c(O)ccc2c1`, the TGI in the assay on ACHN renal, in the assay with HCC-2998 colon, with KM12 colon, with LOX IMVI melanoma, with MALME-3M melanoma and with MCF7 breast was over 100 µM in each case. The TGI with NCI-H23 lung, in the assay with RPMI-8226 leukemia, in the assay with SK-MEL-5 melanoma and in the assay on SN12C renal was over 100 µM throughout.

As to `C/C(=C\C(=N\NC(=N)N)c1ccccc1)c1ccccc1`, the TGI was found to be 1.17 µM in the assay on ACHN renal; 1.86 µM with HCC-2998 colon; 3.67 µM in the assay with KM12 colon; 2.56 µM in the assay on LOX IMVI melanoma; 3.5 µM with MALME-3M melanoma; 1.58 µM in the assay with MCF7 breast. Further, the TGI amounted to 4.01 µM with NCI-H23 lung, 8.41 µM in the assay on RPMI-8226 leukemia, 0.76 µM with SK-MEL-5 melanoma and 3.09 µM with SN12C renal.

As to `O=C(O)CCCN=C(C1=C(O)C(=O)N(c2ccccc2)C1=O)c1ccccc1`, the TGI in the assay on ACHN renal, with HCC-2998 colon, with KM12 colon, in the assay with LOX IMVI melanoma, in the assay with MALME-3M melanoma and in the assay on MCF7 breast was over 100 µM throughout. Also, the TGI in the assay on NCI-H23 lung, with RPMI-8226 leukemia, with SK-MEL-5 melanoma and in the assay on SN12C renal was over 100 µM throughout.

For `Cc1cc(=O)n2c3c(c4c(cc13)c(CN(C)C)cc(=O)n4C)OC2`, the TGI in the assay with ACHN renal is 39.1 µM; in the assay with HCC-2998 colon, 35.9 µM; in the assay on KM12 colon it was 67.7 µM; in the assay on LOX IMVI melanoma it was over 100 µM; in the assay with MALME-3M melanoma it was 30.4 µM; with MCF7 breast it was over 60.5 µM. Further, the TGI in the assay with NCI-H23 lung is 50.2 µM; in the assay on RPMI-8226 leukemia it was over 100 µM; in the assay on SK-MEL-5 melanoma it was 45.1 µM; in the assay on SN12C renal it was over 100 µM.

`CCOC(=O)/C(=C\NC(C)(C)CO)c1nc2ccccc2[nH]1`: the TGI in the assay with ACHN renal was 97.5 µM; in the assay with HCC-2998 colon, over 100 µM; in the assay on KM12 colon, over 100 µM; with LOX IMVI melanoma, over 100 µM; in the assay with MALME-3M melanoma, over 100 µM; with MCF7 breast, over 100 µM. Besides, the TGI in the assay with NCI-H23 lung, in the assay on RPMI-8226 leukemia, in the assay with SK-MEL-5 melanoma and in the assay on SN12C renal was over 100 µM in each case.

Values taken from PubChem BioAssay (NCI).
